Test results reported in ChEMBL document CHEMBL1122473, “Synthesis and antibacterial activity of some 3-[(alkylthio)methyl]quinoxaline 1-oxide derivatives” (1983).
Converted amounts (≈) assume the structure as drawn.

How the values were obtained:
Format in all cases: functional
Salmonella enterica = test: In vitro antibacterial activity under anaerobic conditions against Salmonella choleraesuis strain 58B242
[1] = tested on: Brachyspira hyodysenteriae; test: In vitro antibacterial activity under anaerobic conditions against Treponema hyodysenteriae strain 94A002
Escherichia coli = test: In vitro antibacterial activity under anaerobic conditions against Escherichia coli strain 51A266
Pasteurella multocida = test: In vitro antibacterial activity under anaerobic conditions against Pasteurella multocida strain 59A004
Streptococcus pyogenes = test: In vitro antibacterial activity under anaerobic conditions against […] pyogenes strain 2C203

SMILES | MIC (Salmonella enterica) [mg/L] | MIC [1] [mg/L] | MIC (Escherichia coli) [mg/L] | MIC (Pasteurella multocida) [mg/L] | MIC (Streptococcus pyogenes) [mg/L]
CCS(=O)(=O)Cc1nc2ccccc2[n+]([O-])c1C(=O)NC | 25 (≈ 80.8 µM) | 6.25 (≈ 20.2 µM) | 12.5 (≈ 40.4 µM) | 6.25 (≈ 20.2 µM) | 12.5 (≈ 40.4 µM)
CS(=O)(=O)Cc1nc2ccccc2[n+]([O-])c1C(N)=O | 3.12 (≈ 11.1 µM) | 6.25 (≈ 22.2 µM) | 1.56 (≈ 5.55 µM) | 1.56 (≈ 5.55 µM) | 0.78 (≈ 2.77 µM)
CC(=O)c1c(C[S+](C)[O-])nc2ccccc2[n+]1[O-] (configuration not stated) | 25 (≈ 94.6 µM) | 6.25 (≈ 23.6 µM) | 25 (≈ 94.6 µM) | 3.12 (≈ 11.8 µM) | 6.25 (≈ 23.6 µM)
CC(=O)c1c(CS(=O)(=O)CCO)nc2ccccc2[n+]1[O-] | 50 (≈ 161 µM) | 3.12 (≈ 10.1 µM) | 25 (≈ 80.6 µM) | 1.56 (≈ 5.03 µM) | 6.25 (≈ 20.1 µM)
COC(=O)c1c(CS(C)(=O)=O)nc2ccccc2[n+]1[O-] | 6.25 (≈ 21.1 µM) | 1.56 (≈ 5.26 µM) | 3.12 (≈ 10.5 µM) | 0.78 (≈ 2.63 µM) | 3.12 (≈ 10.5 µM)
COC(=O)c1c(CS(=O)(=O)CCO)nc2ccccc2[n+]1[O-] | 25 (≈ 76.6 µM) | 1.56 (≈ 4.78 µM) | 6.25 (≈ 19.2 µM) | 1.56 (≈ 4.78 µM) | 0.78 (≈ 2.39 µM)
CS(=O)(=O)Cc1nc2ccccc2[n+]([O-])c1C#N | > 200 | – | > 200 | 200 (≈ 760 µM) | 25 (≈ 95 µM)
CCS(=O)(=O)Cc1nc2ccccc2[n+]([O-])c1C(C)=O | 50 (≈ 170 µM) | 0.78 (≈ 2.65 µM) | 25 (≈ 84.9 µM) | 6.25 (≈ 21.2 µM) | 1.56 (≈ 5.3 µM)
CC(=O)c1c(CS(C)(=O)=O)nc2ccccc2[n+]1[O-] | 12.5 (≈ 44.6 µM) | 0.19 (≈ 0.678 µM) | 12.5 (≈ 44.6 µM) | 0.78 (≈ 2.78 µM) | 1.56 (≈ 5.57 µM)
CC(=O)c1c(C[S+]([O-])CCO)nc2ccccc2[n+]1[O-] (configuration not stated) | 6.25 (≈ 21.2 µM) | – | 25 (≈ 84.9 µM) | 3.12 (≈ 10.6 µM) | 25 (≈ 84.9 µM)
CS(=O)(=O)Cc1nc2ccccc2[n+]([O-])c1S(C)(=O)=O | 25 (≈ 79 µM) | > 25 | 25 (≈ 79 µM) | 3.12 (≈ 9.86 µM) | 6.25 (≈ 19.8 µM)
CNC(=O)c1c(CS(=O)(=O)CCO)nc2ccccc2[n+]1[O-] | 25 (≈ 76.8 µM) | 12.5 (≈ 38.4 µM) | 6.25 (≈ 19.2 µM) | 3.12 (≈ 9.59 µM) | 6.25 (≈ 19.2 µM)
CCCS(=O)(=O)Cc1nc2ccccc2[n+]([O-])c1C(C)=O | 200 (≈ 649 µM) | – | 100 (≈ 324 µM) | 3.12 (≈ 10.1 µM) | 6.25 (≈ 20.3 µM)
CNC(=O)c1c(CS(C)(=O)=O)nc2ccccc2[n+]1[O-] | 6.25 (≈ 21.2 µM) | 3.12 (≈ 10.6 µM) | 3.12 (≈ 10.6 µM) | 0.78 (≈ 2.64 µM) | 6.25 (≈ 21.2 µM)
COC(=O)N/N=C/c1c[n+]([O-])c2ccccc2[n+]1[O-] [CARBADOX] | 0.19 (≈ 0.725 µM) | 0.19 (≈ 0.725 µM) | 0.39 (≈ 1.49 µM) | 0.78 (≈ 2.97 µM) | 0.19 (≈ 0.725 µM)
